Data: US4477464A, “Hetero-benzazepine derivatives and their pharmaceutical use” (Ciba-Geigy Corporation, priority 1983, dated 1984)
Where a name gives a salt, the structure may show the parent alone.

Key:
[1] = target: T1, angiotensin-converting enzyme (Oryctolagus cuniculus, UniProt P12822); experiment: in vitro inhibition of angiotensin-converting enzyme (hippuryl-histidyl-leucine substrate); format: biochemical, rabbit; conditions: angiotensin-converting enzyme preparation from lungs of adult male rabbits, 37° C., 30 minutes
T1 construct: angiotensin-converting enzyme preparation (from lungs of adult male rabbits); from tissue; host or cells: lungs of adult male rabbits
T1 sequence (P12822 34-1310): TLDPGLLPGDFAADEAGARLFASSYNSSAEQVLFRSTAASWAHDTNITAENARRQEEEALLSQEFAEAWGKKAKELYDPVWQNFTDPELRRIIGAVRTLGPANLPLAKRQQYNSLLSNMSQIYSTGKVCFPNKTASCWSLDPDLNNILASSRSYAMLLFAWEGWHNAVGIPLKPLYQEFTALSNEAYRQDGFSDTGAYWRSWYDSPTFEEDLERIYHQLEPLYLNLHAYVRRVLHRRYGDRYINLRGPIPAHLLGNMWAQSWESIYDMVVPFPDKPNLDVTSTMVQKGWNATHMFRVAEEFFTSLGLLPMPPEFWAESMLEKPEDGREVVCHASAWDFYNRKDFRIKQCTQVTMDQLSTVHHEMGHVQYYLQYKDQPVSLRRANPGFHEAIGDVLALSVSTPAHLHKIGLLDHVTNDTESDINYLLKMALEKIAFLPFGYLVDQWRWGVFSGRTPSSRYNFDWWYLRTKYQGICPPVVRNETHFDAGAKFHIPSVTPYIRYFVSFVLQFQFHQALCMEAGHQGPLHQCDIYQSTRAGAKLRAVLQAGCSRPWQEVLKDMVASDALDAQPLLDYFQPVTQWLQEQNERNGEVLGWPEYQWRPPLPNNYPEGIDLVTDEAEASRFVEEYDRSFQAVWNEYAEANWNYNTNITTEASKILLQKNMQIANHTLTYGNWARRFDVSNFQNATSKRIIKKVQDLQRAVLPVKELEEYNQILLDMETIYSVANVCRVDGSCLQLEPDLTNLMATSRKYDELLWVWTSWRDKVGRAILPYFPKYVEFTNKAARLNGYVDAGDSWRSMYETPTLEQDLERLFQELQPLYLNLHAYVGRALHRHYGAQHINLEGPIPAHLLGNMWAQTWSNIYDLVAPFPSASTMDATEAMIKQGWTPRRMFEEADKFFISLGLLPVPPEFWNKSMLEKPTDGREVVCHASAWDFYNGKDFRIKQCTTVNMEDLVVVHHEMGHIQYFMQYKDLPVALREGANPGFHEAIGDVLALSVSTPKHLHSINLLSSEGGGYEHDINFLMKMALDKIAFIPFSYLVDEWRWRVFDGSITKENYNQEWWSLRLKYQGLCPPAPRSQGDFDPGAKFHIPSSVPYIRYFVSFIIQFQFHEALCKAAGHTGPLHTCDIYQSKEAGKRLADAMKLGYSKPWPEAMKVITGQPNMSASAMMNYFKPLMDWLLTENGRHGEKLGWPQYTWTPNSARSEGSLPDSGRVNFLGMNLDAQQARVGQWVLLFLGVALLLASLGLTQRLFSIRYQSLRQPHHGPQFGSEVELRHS
Description: Biophys. Acta 293, 451 (1973). According to this method, said compounds are dissolved at about 1 mM concentration in phosphate buffer. To 100 microliters of solutions of the test compound in phosphate buffer, diluted to the desired concentration, are added 100 microliters of 5 mM hippuryl-histidyl-leucine in phosphate buffer, followed by 50 microliters of the angiotensin-converting enzyme preparation (from lungs of adult male rabbits) in Tris buffer, containing potassium and magnesium chloride, as well as sucrose. Said solutions are incubated at 37° C. for 30 minutes and combined with 0.75 ml of 0.6N aqueous sodium hydroxide to stop further reaction. Then 100 microliters of a 0.2% solution of o-phthalaldehyde in methanol are added at room temperature, and 10 minutes later 100 microliters of 6N hydrochloric acid. These samples are read against water in a spectrophotometer set at 360 nm, and the optical densities thereof estimated. They are corrected for the standard curve via a conversion factor expressing nanomoles of histidyl-leucine formed during said 30 minute incubation period. The results are plotted against drug concentration to determine the IC50, i.e., the drug concentration which gives half the activity of the control sample containing no drug.

[2] = tested on: spontaneously hypertensive rats; experiment: antihypertensive effect in spontaneously hypertensive rats, indirect systolic pressure; format: in vivo, rat; conditions: 10 mg/kg p.o.
Description: The in vivo lowering effect on the blood pressure is recorded, either directly by means of a catheter, placed in the test animal's femoral artery, or indirectly by sphygmomanometry at the rat's tail or a transducer. The blood pressure is recorded in mm Hg prior to and after dosing.
Thus the antihypertensive effects are demonstrable in spontaneously hypertensive rats by indirect measurement of systolic pressure. Conscious rats are placed individually in restraint cages within a gently warmed chamber. A rubber pulse sensor is placed distal to an inflatable occlusive cuff on each rat's tail. The cuff is periodically inflated to occlude the tail artery, and systolic pressure is recorded as the point where the first discernible pulse emerges along the decaying calibrated pressure curve. After obtaining control values of blood pressure and heart rate, test compounds are administered orally once daily for 4 consecutive days. Additional blood pressure measurements are usually made at 2.0, 4.0 and 23.5 hours after each daily dosing, and responses are compared to those of rats dosed with the treatment vehicle.
Illustrative of the invention, the compound of example 3a at a dose of 10 mg/kg p.o. lowers blood pressure by about 35 mm Hg.

[3] = tested on: angiotensin-converting enzyme; experiment: inhibition of Angiotensin I induced pressor response in normotensive rats; format: in vivo, rat; conditions: normotensive anesthetized rats, 10 mg/kg p.o., measured 2 to 4 hours after administration
Description: Angiotensin I is hydrolyzed by the action of said converting enzyme to the potent pressor substance Angiotensin II. The inhibition of said enzyme prevents the generation of Angiotensin II from I and, therefore, attenuates any pressor response following an Angiotensin I challenge.
The corresponding in vivo test is performed with male, normotensive rats, which are anesthetized with sodium 5-ethyl-5-(1-methylpropyl)-2-thiobarbiturate. A femoral artery and saphenous vein are cannulated respectively for direct blood pressure measurement and the i.v. administration of Angiotensin I and a compound of this invention. After the basal blood pressure is stabilized, pressor responses to 3 challenges of 333 ng/kg angiotensin I i.v., at 5 minute intervals, are obtained. Such pressure responses are usually again obtained at time intervals after i.v. or p.o. administration of the compound to be tested, and compared with the initial responses. Any observed decrease of said pressor response is an indication of Angiotensin I converting enzyme inhibition. Illustrative of this invention, the compound of example 3a inhibits the pressor response following angiotensin I challenge by about 70% at a dose of 10 mg/kg p.o. as measured 2 to 4 hours after administration.

| SMILES | IC50 [1] | lowering of blood pressure [2] | inhibition of pressor response following angiotensin I challenge [3] |
| --- | --- | --- | --- |
| O=C(O)CN1C(=O)[C@@H](NC(CCc2ccccc2)C(=O)O)CSc2ccccc21 (stereo partly drawn) [Example 2, (3R)-[N-(1-carboxy-3-phenylpropyl)amino]-5-carboxymethyl-2,3-dihydro-1,5-benzothiazepin-4(5H)-one] | ~10 nM | – | – |
| CCOC(=O)[C@H](CCc1ccccc1)N[C@H]1CSc2ccccc2N(CC(=O)O)C1=O [Example 3a, (3R)-{N-[(1S)-carboethoxy-3-phenylpropyl]amino}-5-carboxymethyl-2,3-dihydro-1,5-benzothiazepin-4(5H)-one hydrochloride] | – | about 35 mm Hg | about 70% |
| O=C(O)CN1C(=O)[C@@H](N[C@@H](CCc2ccccc2)C(=O)O)CSc2ccccc21 [Example 6, (3R)-{N-[(1S)-carboxy-3-phenylpropyl]amino}-5-carboxymethyl-2,3-dihydro-1,5-benzothiazepin-4(5H)-one] | ~3 nM | – | – |
| O=C(O)CN1C(=O)[C@@H](N[C@@H](CCc2ccccc2)C(=O)O)C[S+]([O-])c2ccccc21 (stereo partly drawn) [Example 12, (3R)-{N-[(1S)-carboxy-3-phenylpropyl]amino}-5-carboxymethyl-2,3-dihydro-1-oxo-1,5-benzothiazepin-4(5H)-one] | ~6 nM | – | – |
| NCCCCC(N[C@H]1CSc2ccccc2N(CC(=O)O)C1=O)C(=O)O (stereo partly drawn) [Example 14, (3R)-[N-(1-carboxy-5-aminopentyl)amino]-5-carboxymethyl-2,3-dihydro-1,5-benzothiazepin-4(5H)-one dihydrochloride] | ~28 nM | – | – |
